The values that follow come from patent US8648068B2, “Heterocycloalkyl-containing thienopyrimidines for pharmaceutical compositions” (Boehringer Ingelheim International GmbH, priority 2010, dated 2014).

Broadly, the IC50 is the concentration needed to halve the response being measured.

The subject of test [1] is Mnk2 (Mnk2a or Mnk2b) or Mnk1. The conditions noted are these: cell culture cells transfected with Mnk2 (Mnk2a or Mnk2b) or Mnk1; cited from earlier work.
Another test addresses T1, human Mnk2a (Homo sapiens, UniProt Q9HBH9).
T1 construct: made in house; host or cells: E. coli BL21 (vector pGEX-4T1)
Nature of the test: Mnk2a in vitro kinase assay (indirect fluorescence polarization). It is filed as biochemical. The conditions noted are these: GST-Mnk2a pre-activated with ERK2, 20 μM ATP, 30 μM substrate peptide; read-out: MNK2 IC50. The method, boiled down:
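Indirect competitive fluorescence polarization: kinase-generated phospho-product displaces a fluorophore-labelled phospho-peptide from a phospho-specific antibody. Enzyme is N-terminal GST-Mnk2a from E. coli, activated with pre-activated ERK2 and 50 μM ATP; substrate is an amidated 12-mer peptide around eIF4E Ser209.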
A general note: In fluorescence polarisation assays a small probe gives low polarisation when free and higher when bound to something large.

T1 sequence (Q9HBH9 whole entry): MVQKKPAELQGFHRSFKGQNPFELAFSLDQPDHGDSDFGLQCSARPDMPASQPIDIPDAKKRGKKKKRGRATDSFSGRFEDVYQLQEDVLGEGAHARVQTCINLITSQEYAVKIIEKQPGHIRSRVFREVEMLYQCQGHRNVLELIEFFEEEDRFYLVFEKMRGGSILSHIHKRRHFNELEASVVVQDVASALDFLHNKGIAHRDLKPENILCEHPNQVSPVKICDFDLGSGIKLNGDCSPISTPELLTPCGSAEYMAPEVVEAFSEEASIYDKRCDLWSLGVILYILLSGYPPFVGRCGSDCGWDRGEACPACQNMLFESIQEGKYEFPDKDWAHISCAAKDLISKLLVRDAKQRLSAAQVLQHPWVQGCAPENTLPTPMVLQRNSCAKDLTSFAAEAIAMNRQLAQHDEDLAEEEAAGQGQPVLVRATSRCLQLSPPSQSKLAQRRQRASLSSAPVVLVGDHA

Take `Nc1ncnc2n[nH]c(Nc3ccc(F)cc3)c12` [CGP57380]: the “reduction of phosphorylated eIF4E” value in test [1] is reported as “strong reduction”. With `Cc1c(C(=O)NC(C)C)sc2ncnc(Nc3ccc(F)cc3O[C@H]3CCCNC3)c12` [Example 12], the half-inhibitory concentration (IC50) on human Mnk2a was determined as 61 nM. With `Cc1c(C(=O)NCCOC(F)(F)F)sc2ncnc(Nc3ccc(F)cc3OC3CCCNC3)c12` (stereo not shown) [Example 38], the half-inhibitory concentration (IC50) on human Mnk2a amounted to 100 nM.

For the compound `Cc1c(C(=O)NCC#CCN(C)C)sc2ncnc(Nc3ccc(F)cc3OC3CCOCC3)c12` [Example 181], on human Mnk2a, the IC50 amounted to 21 nM. Regarding `Cc1c(C(=O)NCC2CN(C)CCO2)sc2ncnc(Nc3ccc(F)cc3OC3CCOCC3)c12` (stereo not shown) [Example 117], at human Mnk2a, the IC50 was 22 nM. `Cc1c(C(N)=O)sc2ncnc(Nc3ccc(F)cc3O[C@@H]3CCCN(CC(F)(F)F)C3)c12` [Example 73]: at human Mnk2a, the IC50 was 5 nM.

`COCCCNC(=O)c1sc2ncnc(Nc3ccc(F)cc3OC3CCOCC3)c2c1C` [Example 215]: the IC50 on human Mnk2a was determined as 30 nM. Still for that read-out and setting: as for `Cc1c(C(=O)NCCc2ccc(O)cc2)sc2ncnc(Nc3ccc(F)cc3OC3CCCNC3)c12` (stereo not shown) [Example 46], the figure is 15 nM; as for `Cc1c(C(=O)Nc2ccn(C)n2)sc2ncnc(Nc3ccc(F)cc3O[C@H]3CCCNC3)c12` [Example 64, 4-[4-Fluoro-2-((S)-piperidin-3-yloxy)-phenylamino]-5-methyl-thieno[2,3-d]pyrimidine-6-carboxylic acid (1-methyl-1H-pyrazol-3-yl)-amide], 21 nM. Still for that read-out and setting: the figure for `Cc1c(C(=O)NCCN2CCCC2)sc2ncnc(Nc3ccc(F)cc3OC3CCOCC3)c12` [Example 209] is 69 nM. For the compound `Cc1c(C(=O)NCC2CCOCC2)sc2ncnc(Nc3ccc(F)cc3OC3CCOCC3)c12` [Example 172], the IC50 at human Mnk2a turned out to be 43 nM.

Consider `Cc1c(C(=O)N(C)CC2CCCCC2)sc2ncnc(Nc3ccc(F)cc3OC3CCCNC3)c12` (stereo not shown) [Example 36], for which the half-inhibitory concentration (IC50) on human Mnk2a is 790 nM. On the same count and under the same terms, the figure for `CCN1CCC[C@@H]1CNC(=O)c1sc2ncnc(Nc3ccc(F)cc3OC3CCCNC3)c2c1C` (stereo partly shown) [Example 52] is 130 nM. Consider `Cc1c(C(=O)NC2CC2)sc2ncnc(Nc3ccc(F)cc3O[C@H]3CCCNC3)c12` [Example 17], for which the IC50 at human Mnk2a turned out to be 30 nM. The same measure, in the same setting: the figure for `Cc1c(C(=O)NCC2CCCOC2)sc2ncnc(Nc3ccc(F)cc3OC3CCOCC3)c12` (stereo not shown) [Example 197] is 28 nM.

On to `Cc1c(C(N)=O)sc2ncnc(Nc3ccc(F)cc3O[C@@H]3CCN(S(C)(=O)=O)C3)c12` [Example 99, 4-[4-Fluoro-2-((R)-1-methanesulfonyl-pyrrolidin-3-yloxy)-phenylamino]-5-methyl-thieno[2,3-d]pyrimidine-6-carboxylic acid amide], for which the IC50 on human Mnk2a was 6 nM. Still for that read-out and setting: as for `Cc1c(C(=O)NCCc2ccncc2)sc2ncnc(Nc3ccc(F)cc3OC3CCOCC3)c12` [Example 208], the figure is 59 nM; as for `Cc1c(C(=O)N[C@H]2C[C@H]2N)sc2ncnc(Nc3ccc(F)cc3OC3CCOCC3)c12` [Example 136], 71 nM; as for `Cc1c(C(N)=O)sc2ncnc(Nc3ccc(F)cc3O[C@H]3CCCN(S(C)(=O)=O)C3)c12` [Example 10, (S)-4-(4-fluoro-2-(1-(methylsulfonyl)piperidin-3-yloxy)phenylamino)-5-methylthieno[2,3-d]pyrimidine-6-carboxamide], 10 nM.

With `Cc1c(C(=O)NCC(C)(C)CN(C)C)sc2ncnc(Nc3ccc(F)cc3OC3CCOCC3)c12` [Example 154], the concentration for half-maximal inhibition (IC50) at human Mnk2a stood at 215 nM. `Cc1c(C(=O)NCC(C)(C)O)sc2ncnc(Nc3ccc(F)cc3OC3CCCNC3)c12` (stereo not shown) [Example 49]: the IC50 at human Mnk2a came out at 99 nM.

`COc1ccc(CNC(=O)c2sc3ncnc(Nc4ccc(F)cc4OC4CCCNC4)c3c2C)cc1` (stereo not shown) [Example 45]: the IC50 on human Mnk2a came to 36 nM. The same measure, in the same setting: the figure for `Cc1c(C(=O)NCCCN2CCC(F)(F)C2)sc2ncnc(Nc3ccc(F)cc3OC3CCOCC3)c12` [Example 124] is 31 nM; for `Cc1c(C(N)=O)sc2ncnc(Nc3ccc(F)cc3O[C@@H]3CCCN(Cc4cccn4C)C3)c12` [Example 81] it is 6 nM; for `Cc1c(C(=O)NCC(c2cccnc2)N(C)C)sc2ncnc(Nc3ccc(F)cc3OC3CCCNC3)c12` (stereo not shown) [Example 62] it is 110 nM. Still for that read-out and setting: the figure for `Cc1c(C(=O)NCC(C)(C)O)sc2ncnc(Nc3ccc(F)cc3OC3CCOCC3)c12` [Example 190] is 66 nM. With `CCC(CO)NC(=O)c1sc2ncnc(Nc3ccc(F)cc3OC3CCOCC3)c2c1C` (stereo not shown) [Example 224], the half-maximal inhibitory concentration (IC50) on human Mnk2a worked out at 63 nM. On to `Cc1c(C(=O)NCc2nccn2C)sc2ncnc(Nc3ccc(F)cc3O[C@H]3CCCNC3)c12` [Example 14], for which the half-inhibitory concentration (IC50) at human Mnk2a came to 40 nM. For `Cc1c(C(=O)NCc2cc[nH]n2)sc2ncnc(Nc3ccc(F)cc3OC3CCOCC3)c12` [Example 182], the concentration for half-maximal inhibition (IC50) on human Mnk2a worked out at 30 nM. Same read-out and setting: as for `Cc1c(C(=O)NC2CCN(C)CC2)sc2ncnc(Nc3cccnc3O[C@@H]3CCCOC3)c12` [Example 263], the figure is 115 nM.

Take `Cc1c(C(=O)NCCc2cnn(C)c2)sc2ncnc(Nc3ccc(F)cc3OC3CCOCC3)c12` [Example 171]: the 50% inhibitory concentration (IC50) on human Mnk2a amounted to 41 nM.

On to `Cc1c(C(=O)NCC#N)sc2ncnc(Nc3ccc(F)cc3OC3CCOCC3)c12` [Example 164], for which, at human Mnk2a, the half-inhibitory concentration (IC50) is 27 nM.

As for `Cc1c(C(=O)NC[C@@H]2CCC(=O)N2)sc2ncnc(Nc3ccc(F)cc3OC3CCCNC3)c12` (stereo partly shown) [Example 51], on human Mnk2a, the concentration for half-maximal inhibition (IC50) came to 160 nM. Regarding `CSCCNC(=O)c1sc2ncnc(Nc3ccc(F)cc3OC3CCOCC3)c2c1C` [Example 234], the IC50 on human Mnk2a worked out at 90 nM.
